The values that follow come from patent US10316017B2, “COT modulators and methods of use thereof” (Gilead Sciences, Inc., priority 2015, dated 2019).

Read-outs that look alike come from different tables or passages of the source. Where only a bound is given, the exact number is not on record here.

Assay [1] has as its system TNFα production in LPS-stimulated human monocytes. Description: Cot Monocyte TNFα Cell Based Assay. The following applies: read-out: EC50 TNF. The essentials:
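TR-FRET read-out of total secreted TNFα, normalized as % control (unstimulated = 0%, LPS-stimulated = 100%). Cells (5,000/well) were exposed to compound 1 h at 37 °C, then to 50 pg/ml LPS for a further 4 h.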

In assay [2] the target is T1, human Cot catalytic domain (30-397 amino acids) (Homo sapiens, UniProt P41279).
T1 construct: Purified recombinant human Cot catalytic domain (30-397 amino acids) was purchased from Cama Biosciences; purchased Cama Biosciences (so in the source)
T1 sequence (P41279 30-397): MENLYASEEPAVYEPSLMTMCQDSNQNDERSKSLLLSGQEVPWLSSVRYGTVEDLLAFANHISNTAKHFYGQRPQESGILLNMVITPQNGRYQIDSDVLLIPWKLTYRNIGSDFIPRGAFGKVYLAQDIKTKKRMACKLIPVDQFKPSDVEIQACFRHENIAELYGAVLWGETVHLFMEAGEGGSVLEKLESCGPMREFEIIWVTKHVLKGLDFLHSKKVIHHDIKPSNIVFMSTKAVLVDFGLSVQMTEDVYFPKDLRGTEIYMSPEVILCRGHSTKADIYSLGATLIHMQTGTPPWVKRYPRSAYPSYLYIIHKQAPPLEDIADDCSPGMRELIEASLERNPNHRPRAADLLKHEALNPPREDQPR
Description: High Throughput Cot Biochemical Assay (KinEASE TR-FRET). The following applies: read-out: IC50 HTRF. The essentials: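 TR-FRET readout: Eu-labeled phospho-specific antibody binds XL665-tagged STK3 peptide after phosphorylation by Cot (aa 30-397, 5 nM). Conditions: 400 μM ATP, 1 μM peptide, MOPS pH 7.0 buffer with MgOAc, DTT, BSA, NP-40, glycerol; 0.1% DMSO.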
For orientation: Time-resolved FRET reads energy transfer from a long-lived donor to a nearby acceptor.

[3] abbreviates: Homo sapiens, Monocyte, TNFα in LPS-stimulated human monocytes.
The mark [4] stands for this setting: Cot biochemical HTRF (KinEASE TR-FRET) assay.
Where [5] appears, read: Homo sapiens, Monocyte, LPS-stimulated human monocytes, TNFα TR-FRET.
The mark [6] stands for this setting: Cot KinEASE TR-FRET, 400 μM ATP.
The mark [7] stands for this setting: Cot KinEASE TR-FRET (HTRF) biochemical assay, 400 μM ATP.

By EC50 is commonly meant the concentration giving half of the maximal effect. In general, IC50 refers to the point on the concentration scale where inhibition reaches its midpoint.

For the molecule `Cc1ccc(CNc2c(C#N)cnc3c(Cl)cc(N[C@@H](c4ccc(Cl)cc4)c4cn(C5CCN(C(C)(C)C)CC5)nn4)cc23)cc1` [Example 678, (S)-6-(((1-(1-(tert-butyl)piperidin-4-yl)-1H-1,2,3-triazol-4-yl)(4-chlorophenyl)methyl)amino)-8-chloro-4-((4-methylbenzyl)amino)quinoline-3-carbonitrile], in assay [1] (setting [3]), the EC50 amounted to 5690 nM. Further, in assay [2] (setting [4]), the half-inhibitory concentration (IC50) turned out to be 1430 nM.
On the same counts, the results for `CC(C)(C)N1CCC(n2cc([C@@H](Nc3cc(Cl)c4ncc(C#N)c(Nc5cc(Cl)c(F)cc5F)c4c3)c3ccc(Cl)cc3)nn2)CC1` [Example 693, (S)-6-(((1-(1-(tert-butyl)piperidin-4-yl)-1H-1,2,3-triazol-4-yl)(4-chlorophenyl)methyl)amino)-8-chloro-4-((5-chloro-2,4-difluorophenyl)amino)quinoline-3-carbonitrile] are 1540 nM and 46 nM.
Turning to `CC(C)(C)CNc1c(C#N)cnc2c(C#N)cc(N[C@H](c3cn(C4(C#N)CCC4)nn3)c3ccccc3Cl)cc12` [Example 952, (S)-6-(((2-chlorophenyl)(1-(1-cyanocyclobutyl)-1H-1,2,3-triazol-4-yl)methyl)amino)-4-(neopentylamino)quinoline-3,8-dicarbonitrile], the concentration for a half-maximal effect (EC50) in assay [1] (setting [5]) was determined as 134 nM. Moreover, the 50% inhibitory concentration (IC50) in assay [2] (setting [6]) came to 8 nM.
Taken in the same sequence, the figures for `CC(C)(C)CNc1c(C#N)cnc2c(F)cc(N[C@H](c3cn(C4CC4)nn3)c3ccccc3Cl)cc12` [Example 1015, (S)-6-(((2-chlorophenyl)(1-cyclopropyl-1H-1,2,3-triazol-4-yl)methyl)amino)-8-fluoro-4-(neopentylamino)quinoline-3-carbonitrile] were 462 nM and 14 nM.
For `Cc1c([C@H](Nc2cc(C#N)c3ncc(C#N)c(NCC(C)(C)C)c3c2)c2cn(C3(C(F)(F)F)CC3)nn2)cccc1-n1cccn1` [Example 1045, (S)-6-(((2-methyl-3-(1H-pyrazol-1-yl)phenyl)(1-(1-(trifluoromethyl)cyclopropyl)-1H-1,2,3-triazol-4-yl)methyl)amino)-4-(neopentylamino)quinoline-3,8-dicarbonitrile], the EC50 in assay [1] (setting [5]) was 268 nM. Also, the IC50 in assay [2] (setting [6]) was found to be 5 nM.
On the same counts, the results for `CC(C)(C)CNc1c(C#N)cnc2c(Cl)cc(N[C@@H](c3ccc(F)cc3)c3cn(C45CC(C4)C5)nn3)cc12` [Example 1092, (S)-6-(((1-(bicyclo[1.1.1]pentan-1-yl)-1H-1,2,3-triazol-4-yl)(4-fluorophenyl)methyl)amino)-8-chloro-4-(neopentylamino)quinoline-3-carbonitrile] are 395 nM and 20 nM.
For the molecule `CC[C@@H](Nc1c(C#N)cnc2c(Cl)cc(N[C@H](c3ccccc3)c3c[nH]nn3)cc12)c1ccccc1` [Example 626, 8-chloro-6-(((R)-phenyl(1H-1,2,3-triazol-4-yl)methyl)amino)-4-(((R)-1-phenylpropyl)amino) quinoline-3-carbonitrile], the EC50 in assay [1] (setting [3]) was over 50000 nM. Also, in assay [2] (setting [4]), the 50% inhibitory concentration (IC50) worked out at 784 nM.
In the case of `CC(C)(C)N1CCC(n2cc([C@@H](Nc3cc(Cl)c4ncc(C#N)c(NC5CCCC(O)C5)c4c3)c3ccc(F)cc3)nn2)CC1` (stereo partly drawn) [Example 440, 6-(((S)-(1-(1-(tert-butyl)piperidin-4-yl)-1H-1,2,3-triazol-4-yl)(4-fluorophenyl)methyl)amino)-8-chloro-4-((3-hydroxycyclohexyl)amino) quinoline-3-carbonitrile], the concentration for a half-maximal effect (EC50) in assay [1] (TNFα in LPS-stimulated human monocytes) was 371 nM. Besides, the IC50 in assay [2] (setting [4]) was determined as 46 nM.
For the molecule `CCN1CCC(n2cc([C@@H](Nc3cc(F)c4ncc(C#N)c(Nc5ccc(F)c(Cl)c5)c4c3)c3ccccc3)nn2)CC1` [Example 791, (S)-4-((3-chloro-4-fluorophenyl)amino)-6-(((1-(1-ethylpiperidin-4-yl)-1H-1,2,3-triazol-4-yl)(phenyl)methyl)amino)-8-fluoroquinoline-3-carbonitrile], the EC50 in assay [1] (setting [3]) came to 50 nM. The concentration for half-maximal inhibition (IC50) in assay [2] (setting [4]) is 3 nM.
Consider `Cc1c(C#N)cccc1[C@H](Nc1cc(C#N)c2ncc(C#N)c(NCC(C)(C)C)c2c1)c1cn(C(CF)CF)nn1` [Example 1149, (S)-6-(((3-cyano-2-methylphenyl)(1-(1,3-difluoropropan-2-yl)-1H-1,2,3-triazol-4-yl)methyl)amino)-4-(neopentylamino)quinoline-3,8-dicarbonitrile], for which the 50% effective concentration (EC50) in assay [1] (setting [5]) was 45 nM. Further, the 50% inhibitory concentration (IC50) in assay [2] (setting [6]) is 4 nM.
On the same counts, the results for `CC(C)(C)CNc1c(C#N)cnc2c(C#N)cc(N[C@@H](c3ccccc3)c3cn(C4(C(F)F)CC4)nn3)cc12` [Example 1064, (S)-6-(((1-(1-(difluoromethyl)cyclopropyl)-1H-1,2,3-triazol-4-yl)(phenyl)methyl)amino)-4-(neopentylamino)quinoline-3,8-dicarbonitrile] are 103 nM and 12 nM.
On the same counts, the results for `Cc1c(C#N)cccc1[C@H](Nc1cc(C#N)c2ncc(C#N)c(NCC(C)(C)C)c2c1)c1cn(C2(C)CC2)nn1` [Example 1148, (S)-6-(((3-cyano-2-methylphenyl)(1-(1-methylcyclopropyl)-1H-1,2,3-triazol-4-yl)methyl)amino)-4-(neopentylamino)quinoline-3,8-dicarbonitrile] are 20 nM and 2 nM.
On the same counts, the results for `[2H]C(Nc1cc(Cl)c2ncc(C#N)c(NCC(C)(C)C)c2c1)(c1cn(C2(C3CC3)CC2)nn1)c1ccccc1Cl` (centres unmarked) [Example 958, 6-(((1-([1,1'-bi(cyclopropan)]-1-yl)-1H-1,2,3-triazol-4-yl)(2-chlorophenyl)methyl-d)amino)-8-chloro-4-(neopentylamino)quinoline-3-carbonitrile] are 460 nM and 31 nM.
As for `[2H][C@](Nc1cc(Cl)c2ncc(C#N)c(N[C@H](CC)c3ccccc3)c2c1)(c1cccc(C#N)c1)c1cn(C2CC2)nn1` [Example 340, 8-chloro-6-(((S)-(3-cyanophenyl)(1-cyclopropyl-1H-1,2,3-triazol-4-yl)methyl-d)amino)-4-(((R)-1-phenylpropyl)amino)quinoline-3-carbonitrile], the concentration for a half-maximal effect (EC50) in assay [1] (setting [3]) is 57 nM. For the same molecule, the half-inhibitory concentration (IC50) in assay [2] (setting [7]) was 2 nM.
`Cc1c([C@H](Nc2cc(C#N)c3ncc(C#N)c(NCC(C)(C)C)c3c2)c2cn(C3(C(F)(F)F)CC3)nn2)cccc1-n1cnnc1` [Example 1072, (S)-6-(((2-methyl-3-(4H-1,2,4-triazol-4-yl)phenyl)(1-(1-(trifluoromethyl)cyclopropyl)-1H-1,2,3-triazol-4-yl)methyl)amino)-4-(neopentylamino)quinoline-3,8-dicarbonitrile]: in assay [1] (setting [5]), the 50% effective concentration (EC50) was at least 1000 nM. In assay [2] (setting [6]), the half-inhibitory concentration (IC50) is 3 nM.
On the same counts, the results for `CC(C)(C)CNc1c(C#N)cnc2c(Cl)cc(N[C@@H](c3ccc(C#N)cc3)c3cn(C4CC4)nn3)cc12` [Example 1084, (S)-8-chloro-6-(((4-cyanophenyl)(1-cyclopropyl-1H-1,2,3-triazol-4-yl)methyl)amino)-4-(neopentylamino)quinoline-3-carbonitrile] are 73 nM and 7 nM.
Regarding `CC(C)(C)N1CCC(n2cc([C@@H](Nc3cc(Cl)c4ncc(C#N)c(Nc5ccc(F)c(Cl)c5)c4c3)c3cccc(C=O)c3)nn2)CC1` [Compound 42], in assay [1] (setting [3]), the EC50 is 138 nM. Besides, the IC50 in assay [2] (setting [7]) worked out at 5 nM.
With `CC(C)(C)N1CCC(n2cc([C@@H](Nc3cc(Cl)c4ncc(C#N)c(Nc5ccc(F)c(Cl)c5)c4c3)c3cccc(-c4nccs4)c3)nn2)CC1` [Example 632, (S)-6-(((1-(1-(tert-butyl)piperidin-4-yl)-1H-1,2,3-triazol-4-yl)(3-(thiazol-2-yl)phenyl)methyl)amino)-8-chloro-4-((3-chloro-4-fluorophenyl)amino)quinoline-3-carbonitrile], the EC50 in assay [1] (setting [3]) stood at 163 nM. For the same molecule, in assay [2] (setting [4]), the half-maximal inhibitory concentration (IC50) amounted to 3 nM.
Regarding `CC(=O)N(C)c1cccc([C@H](Nc2cc(C#N)c3ncc(C#N)c(NCC(C)(C)C)c3c2)c2cn(C3CC3)nn2)c1` [Compound 9], the EC50 in assay [1] (setting [3]) stood at 172 nM. In assay [2] (setting [7]), the IC50 is 2 nM.
For the molecule `N#Cc1cnc2c(Cl)cc(N[C@@H](c3ccc(Cl)cc3)c3c[nH]nn3)cc2c1Nc1ccc(Cl)c(Cl)c1` [Example 688, (S)-8-chloro-6-(((4-chlorophenyl)(1H-1,2,3-triazol-4-yl)methyl)amino)-4-((3,4-dichlorophenyl)amino)quinoline-3-carbonitrile], the half-maximal effective concentration (EC50) in assay [1] (setting [3]) is 1250 nM. Also, the half-inhibitory concentration (IC50) in assay [2] (setting [4]) is 621 nM.
Take `CC(C)(C)CNc1c(C#N)cnc2c(C#N)cc(N[C@@H](c3ccc(F)cc3)c3cn(C4(c5cnccn5)CC4)nn3)cc12` [Example 984, (S)-6-(((4-fluorophenyl)(1-(1-(pyrazin-2-yl)cyclopropyl)-1H-1,2,3-triazol-4-yl)methyl)amino)-4-(neopentylamino)quinoline-3,8-dicarbonitrile]: in assay [1] (setting [5]), the concentration giving a half-maximal response (EC50) is 93 nM. In addition, the IC50 in assay [2] (setting [6]) is 125 nM.
Turning to `CC(C)(C)N1CCC(n2cc([C@@H](Nc3cc(Cl)c4ncc(C#N)c(Nc5cccc(Cl)c5Cl)c4c3)c3ccccc3)nn2)CC1` [Example 526, (S)-6-(((1-(1-(tert-butyl)piperidin-4-yl)-1H-1,2,3-triazol-4-yl)(phenyl)methyl)amino)-8-chloro-4-((2,3-dichlorophenyl)amino) quinoline-3-carbonitrile], in assay [1] (setting [3]), the concentration for a half-maximal effect (EC50) is 503 nM. For the same molecule, the IC50 in assay [2] (setting [4]) worked out at 24 nM.
